Source: patent US5698691A, “Condensed cyclic compounds and their use” (Takeda Chemical Industries, Ltd., priority 1993, dated 1997)

Experiments:
[1] = biological target: T1, squalene synthetase (Rattus norvegicus, UniProt Q02769); test: Squalene synthetase inhibitory activity, rat-derived enzyme (liver microsome fraction); format: biochemical; conditions: SD rat liver microsome fraction; 5 uM [1-3H] farnesyl pyrophosphate, 37° C., 45 minutes
T1 construct: from tissue; host or cells: rat liver microsome fraction (SD male rat, 6 weeks old)
T1 sequence (Q02769 1-416): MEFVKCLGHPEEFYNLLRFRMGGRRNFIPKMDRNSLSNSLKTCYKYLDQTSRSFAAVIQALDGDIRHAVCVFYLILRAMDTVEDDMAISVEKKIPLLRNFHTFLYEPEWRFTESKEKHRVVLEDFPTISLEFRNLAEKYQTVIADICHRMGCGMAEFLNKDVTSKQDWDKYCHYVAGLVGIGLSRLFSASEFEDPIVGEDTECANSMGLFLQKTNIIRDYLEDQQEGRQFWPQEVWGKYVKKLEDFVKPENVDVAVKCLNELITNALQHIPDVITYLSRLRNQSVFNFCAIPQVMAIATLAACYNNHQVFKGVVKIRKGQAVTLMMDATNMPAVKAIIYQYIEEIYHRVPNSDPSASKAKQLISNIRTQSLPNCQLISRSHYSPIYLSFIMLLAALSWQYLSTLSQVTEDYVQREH
Procedure: (§1) Assay Method of Squalene Synthetase Inhibitory Activity
(§2) The squalene synthetase inhibitory activity was assayed as follows with the enzyme solutions described in the subsequent Experimental Examples 1 and 2.
(§3) More specifically, an enzyme solution (protein content 0.8 ug) prepared in Experimental Example 1 or 2 was added to a solution (total volume 50 μl)) containing 5 uM [1-^3 H] farnesyl pyrophosphate (specific activity 25 uCi/mole), 1 mM NADPH, 5 mM MgCl2, 6 mM glutathione, a 100 mM buffer solution of potassium phosphate (pH 7.4) and a test drug (used as an aqueous solution or a DMSO solution), then the reaction was allowed to proceed at 37° C. for 45 minutes. To the reaction mixture was added 150 μl of a mixture of chloroform and methanol (1:2) to suspend the reaction, followed by adding 50 μl of chloroform and 50 μl of a 3N aqueous solution of sodium hydroxide. 50 μl of the chloroform layer (lower layer) containing the reaction mixture having squalene as the principal component and 3 ml of toluene-based liquid scintillator were mixed, and its radioactivity was determined by means of a liquid scintillation counter.
(§4) The squalene synthetase inhibitory activity was expressed in terms of the concentration inhibiting by 50% the radioactivity taken into the chloroform layer (IC50, molar concentration (M)).
An SD male rat (6 week old) was killed by bleeding, and its liver was excised. About 10 g of the liver was washed with a saline solution cooled with ice, which was then homogenized in 15 ml of an ice-cooled buffer solution [100 mM potassium phosphate (pH 7.4), 15 mM nicotinamide, 2 mM MgCl2 ], followed by centrifugation for 20 minutes (4° C.) with 10000×g. The supernatant layer was separated and subjected to further centrifugation for 90 minutes (4° C.) at 105000×g. The sediment was then suspended in an ice-cooled 100 mM phosphate buffer solution (pH 7.4), which was again subjected to centrifugation for 90 minutes (4° C.) at 105000×g. The sediment thus obtained (microsome fraction) was suspended in an ice-cooled 100 mM potassium phosphate buffer (pH 7.4) (about 40 mg/ml protein concentration, determined with BCA protein assay kit of Pias Co., Ltd.). This suspension was used as the enzyme solution.

[2] = biological target: T2, squalene synthetase (Homo sapiens, UniProt P37268); test: Squalene synthetase inhibitory activity, human-derived enzyme (HepG2 microsome fraction); format: biochemical; conditions: 5 uM [1-3H] farnesyl pyrophosphate, 37° C., 45 minutes
T2 construct: endogenous in cells; host or cells: HepG2 (human hepatic carcinoma) cells, microsome fraction
T2 sequence (P37268 1-417): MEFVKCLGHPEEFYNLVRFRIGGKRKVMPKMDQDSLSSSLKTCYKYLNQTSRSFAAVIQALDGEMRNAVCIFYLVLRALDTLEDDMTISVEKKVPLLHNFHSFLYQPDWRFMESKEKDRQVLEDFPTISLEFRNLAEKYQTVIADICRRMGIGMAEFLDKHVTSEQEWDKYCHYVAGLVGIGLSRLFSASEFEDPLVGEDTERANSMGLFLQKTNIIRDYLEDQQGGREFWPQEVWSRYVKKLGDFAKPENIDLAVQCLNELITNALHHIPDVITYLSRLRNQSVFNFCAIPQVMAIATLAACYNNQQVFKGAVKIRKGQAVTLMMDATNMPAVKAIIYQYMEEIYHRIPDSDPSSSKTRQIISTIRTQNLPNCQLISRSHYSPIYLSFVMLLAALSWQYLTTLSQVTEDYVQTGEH
Procedure: as §1, §2, §3, §4
Human hepatic carcinoma cells HepG2 (about 1×10^9 cells) obtained by incubation in a Dulbecco-modified Eagle's medium (37° C. in the presence of 5% CO2) were suspended in 10 ml of an ice-cooled buffer solution [100 mM potassium phosphate buffer (pH 7.4), 30 mM nicotinamide and 2.5 mM MgCl2 ]. The cells were crashed by means of ultrasonication (for 30 seconds, twice). From the sonicate thus obtained, the microsome fraction was obtained by the same procedure as in Experiment Example 1, which was suspended in an ice-cooled 100 mM potassium phosphate buffer (pH 7.4) (about 4 mg/ml protein concentration). This suspension was used as the enzyme solution. The results are shown in [Table 4].

Row | Compound | IC50 [1] | IC50 [2]
1 | COc1cccc([C@H]2S[C@H](Cc3nnn[nH]3)C(=O)N(CC(C)(C)C)c3ccc(Cl)cc32)c1OC [Example 59, (3R,5S)-7-Chloro-5-(2,3-dimethoxyphenyl)-1-neopentyl-3-(tetrazol-5-yl)methyl-1,2,3,5-tetrahydro-4,1-benzothaizepin-2-one] | 0.016 µM | 0.01 µM
2 | COc1ccccc1[C@H]1S[C@H](CC(=O)O)C(=O)N(CC(C)C)c2ccc(Cl)cc21 (relative stereo) [Example 10-7, 3,5-trans-7-Chloro-5-(2-methoxyphenyl)-1-isobutyl-2-oxo-1,2,3,5-tetrahydro-4,1-benzothiazepine-3-acetic acid] | 0.026 µM | 0.013 µM
3 | CC(C)CN1C(=O)C(CC(=O)O)CC(c2ccccc2Cl)c2cc(Cl)ccc21 (centres unmarked) [Example 26, 7-Chloro-5-(2-chlorophenyl)-1-isobutyl-2-oxo-2,3,4,5-tetrahydro-1H-[1]-benzazepine-3-acetic acid] | 0.39 µM | 0.12 µM
4 | COc1ccccc1[C@H]1O[C@H](CC(=O)O)C(=O)N(CC(C)(C)C)c2sc(Cl)cc21 (relative stereo) [Example 33, 3,5-trans-7-Chloro-5-(2-methoxyphenyl)-1-neopentyl-2-oxo-1,2,3,5-tetrahydro-4,1-thieno[2,3-e]oxazepine-3-acetic acid] | 0.088 µM | 0.073 µM
